SMILES strings stand for the structures. A value given as a limit tells only on which side of the number the result lay.

As to `COc1ccc(C(=O)Nc2c(Cl)cncc2Cl)c2c1OC(C)C2C(=O)C1NCCc2ccccc21` (stereo unspecified), the melting point – broadly, the temperature, or range, at which the solid turns liquid – is 211 to 213 °C. Regarding `O=C(O)CCCC(=O)CNC(=O)c1csc(NC(=O)NCc2ccccc2)n1`, the melting point was determined as 169 °C. Under `CONS(=O)(=O)c1ccc(C(=O)C=Cc2cc(-c3cc4ccccc4n3C)c(OC)cc2OC)cc1` stands 214 to 216 °C. The result for `Cn1nc(-c2ccccc2)nc1-c1ccccc1CBr` reads 83 to 85 °C; that for `CCOC(=O)c1ccc(NC(=O)Cc2csc3nc(C(=O)NCc4cccc(OC)c4)[nH]c(=O)c23)cc1`, 222 to 223 °C; that for `O=[N+]([O-])c1c(Cl)cccc1-c1nc2ccccc2n1CC(O)CO` (stereo unspecified), 188 to 189 °C. Under `CC(C)(C)C(=O)Nc1nc2[nH]c3cccc(Cl)c3c2c(=O)[nH]1` stands 186 to 190 °C; under `Oc1cc2c(cc1Cl)OCO2`, 95 °C; under `CC(C)(C)OC(=O)Nc1ccc(-c2ccccc2F)cc1NC(=O)CC(=O)c1cccc(-n2ccnc2)c1`, 50 to 58 °C. Turning to `CCOC(=O)C1CSC(COc2ccc(OC)cc2)N1C(=O)CCl` (stereo unspecified), the melting point fell in the range of 69 to 71 °C. In turn, `CC1CC(=O)C=C(c2ccc(OCC(=O)O)c(Cl)c2Cl)C1` (stereo unspecified) showed a melting point of 187 to 190 °C.

Take `O=C1CSC(C(=O)O)Cc2cc3c(cc21)OCO3` (stereo unspecified): the melting point fell in the range of 234 to 235 °C. For the compound `CC(=NOCC=Cc1ccccc1)C(=O)Cl`, the melting point was 120 to 121 °C.

For the compound `CC(O)(c1nc(-c2ccc(F)cc2)c(-c2ccc(F)cc2)[nH]1)C(F)(F)F` (stereo unspecified), the melting point was 191 to 192 °C. Under `CCN(CC)C(=O)c1cc2c(cn1)[nH]c1ccccc12` stands 170 °C; under `CCOC(=NC#N)N[C@@H]1c2cc(C#N)ccc2OC(C)(C)[C@H]1O` (relative stereo), 193 to 196 °C. Take `Nc1nc2c(s1)CCN(CC1=Cc3ccccc3CC1)CC2`: the melting point was 158 to 160 °C.

For `CN1c2ccccc2CN(C(=O)c2ccc(C3CCCCC3)cc2)c2ccccc21`, the melting point lay in the range of 104 to 106 °C. As to `C(=Cc1cccnc1)c1ccc(C2OCCO2)cc1`, the melting point lay in the range of 117 to 119 °C. Under `O=C(C=Cc1ccccc1)NCc1ccc(C(=O)O)cc1` stands 238 to 239 °C. The result for `O=C1O[C@@H](CN2CCC(Cc3ccc(F)cc3)CC2)CN1c1ccc(O)cc1` reads 164 to 165 °C; that for `O=C(O)c1cn2c3c(c(Cl)cc(Cl)c3c1=O)CCC2`, 300 to 304 °C. Under `Cc1ccc(-c2cc(OCC(=O)N3CCOCC3)c3c(Cl)cccc3n2)cc1` stands 170 °C.

In turn, `CCCNC1=NS(=O)(=O)c2cc(C(F)(F)F)ccc2N1` returned a melting point of 241 to 243 °C.

The compound `N#Cc1c(N2CCCCC2)cc(-c2ccc3ccccc3c2)c2c1-c1ccccc1C2` registered a melting point of 136 to 138 °C. The result for `Cn1ccc(C(Cl)Cl)n1` reads 38.5 to 40 °C; that for `COc1cc(Nc2c(C#N)cnc3cc(OCC4CCN(C)CC4)ccc23)c(Cl)cc1Cl`, 191 to 193 °C; that for `C1=C(c2c[nH]c3ncccc23)CCN(CCOc2cccc3ncccc23)C1`, 202 to 205 °C.

As for `CC(n1ncnn1)C(O)(c1ccc(Cl)cc1)c1ccc(C(F)(F)F)cc1` (stereo unspecified), the melting point lay in the range of 123 to 125 °C. The result for `OC1CSC(Oc2ccc(-c3ccncc3)nc2Cl)C(O)C1O` (stereo unspecified) reads 186 °C. For the compound `CCCc1nc2c(N)nc3ccccc3c2n1CCCCCC(=O)NC`, the melting point lay within 158 to 159 °C.

Turning to `C#Cc1ccc(OC)c(OCC)c1`, the melting point was 95 to 96 °C. Under `CCCC12CCC(=O)C=C1c1c(cc(CC(=O)O)c(Cl)c1Cl)C2` (stereo unspecified) stands 206 to 208 °C; under `CC(=O)OCC1OC(n2cc(Cc3ccc4occc4c3)c3c(F)cccc32)C(OC(C)=O)C(OC(C)=O)C1OC(C)=O` (stereo unspecified), 184 to 185 °C; under `O=C(O)c1cn(-c2ccc(F)cc2F)c2c(F)c(N3Cc4cccc(F)c4C3)c(F)cc2c1=O`, greater than 300 °C. The result for `COC(=O)c1c(C(=O)OC)n(Cc2cccc(C(N)=S)c2)c2ccccc12` reads 176 to 178 °C; that for `CC(C)(C)OC(=O)NCc1ccccc1Br`, 51 to 53 °C; that for `O=C(CCl)COc1cccc(C(F)(F)F)c1`, 38 to 39 °C.

`CC(C(=O)O)c1ccc2c(c1)Cc1cc(O)ccc1-2` (stereo unspecified): the melting point lay in the range of 205 to 207 °C. Under `O=C(c1ccccc1)c1cc(Cl)ccc1N=C=S` stands 63 to 65 °C; under `CCOC(=O)N1CCN(c2cc3nc(C(C)(C)C)sc3cc2N)CC1`, 215 to 220 °C; under `CC1(C)c2ccccc2C(C)(C)N1O`, 128 to 130 °C.

`Cc1ccc(S(=O)(=O)N2CCCC2C(=O)NC(Cc2ccc(OCC(=O)OCc3ccccc3)cc2)C(=O)O)cc1` (stereo unspecified) came in with a melting point of 79 to 81 °C.

`COc1ccc2cccc(CC(=O)O)c2c1` returned a melting point of 154 to 156 °C. Under `Nc1ccc(C(=O)OCCCCl)c(N)c1` stands 97 °C; under `COc1ccc2c(c1)C(=O)CCC21CCC(=O)N(C)C1=O` (stereo unspecified), 116 to 118 °C; under `CC1(C)OC(=O)c2ccc(C(c3c(F)cc([N+](=O)[O-])cc3F)n3cncn3)cc21` (stereo unspecified), 163 to 164 °C. `CCOC(=O)CCCN(C(=O)CC)C(c1ccccc1)c1ccccc1` showed a melting point of 83 to 85 °C. The result for `CC1=CC(=O)c2nc3n(c2C1=O)CCC3` reads 162 to 164 °C; that for `CC(C)(C)OC(=O)NCCNC(=O)c1ccc(CO)cc1`, 117 to 119 °C; that for `N#CCCn1nc(-c2ccccc2)ccc1=O`, 103 to 104 °C. Under `CN(C)c1c(C#N)c(N)nn1C` stands 100 to 102 °C; under `O=C(Nc1ccc(C2CC(F)(F)C2(F)Cl)cc1)Nc1nonc1-c1ccccc1` (stereo unspecified), 201 °C.

In turn, `CC(=O)Oc1cc(S(=O)(=O)c2ccccc2)ccc1OCc1ccccc1` returned a melting point of 107 to 111 °C. `Nc1sc(/C=C/CC2CCCCC2)c(CN(C2CCCCC2)C2CCCCC2)c1C(=O)c1ccc(Cl)cc1` registered a melting point of 147 to 150 °C.

With `COc1ccccc1N1CCN(C(=O)N(C)c2nc3ccccc3nc2OC)CC1`, the melting point lay within 128 to 130 °C. Under `NCCN1CCOC(c2ccccc2)(c2ccccc2)CC1` stands 75 to 80 °C; under `Cc1nn(C)c(F)c1C(=O)F`, 85 to 87 °C; under `COC(=O)C(=C(C)C)N1CC(NC(=O)COc2ccccc2)C1=O` (stereo unspecified), 154 to 155 °C. For `COc1ccc2c(c1)-c1c([nH]c3c1-c1cc(OC)ccc1CC3)CC2`, the melting point is 206 °C. The result for `CCCCC[C@H](O)c1ccc(Br)cc1` reads 70 to 71 °C; that for `Cc1noc(NS(=O)(=O)c2ccccc2-c2ccc(-c3ncco3)cc2O)c1C`, 111 to 115 °C; that for `Cc1cccc(S(=O)(=O)n2ccnc2)c1C#N`, 93 to 95 °C. Under `O=C1c2ccc3cc(C(=O)N4CCN(Cc5ccccc5)CC4)cnc3c2N=CC1[N+](=O)[O-]` (stereo unspecified) stands 213 to 216 °C; under `N#CC(Cl)Cc1ccc(Cl)cc1C(=O)c1ccccc1F` (stereo unspecified), 94 to 95 °C. In turn, `C=Cc1cc2ccccc2[nH]1` returned a melting point of 91 °C. Under `CC(NC1CCc2ccccc21)C(=O)O` (stereo unspecified) stands 248 to 250 °C; under `N#Cc1cc(F)cc(-c2cc(Br)c3c(c2)C2(CCCCC2)C(=O)N3)c1`, 217 °C; under `CC(C)(C)c1n[nH]c(SCCNC(=O)Nc2ccc(C(F)(F)F)cc2)n1`, 238 to 240 °C.

`CC(C)n1nc(-c2c(-c3ccccc3)nn3ccc(OCCCN(C)C)cc23)ccc1=O` registered a melting point of 125 to 126 °C. Under `CCC(=O)NCC1CC1c1cccc2nn(CC)cc12` (stereo unspecified) stands 114 to 115 °C. Under `O=c1[nH]nc(-c2ccccc2[N+](=O)[O-])o1` stands 157 to 158 °C. The result for `COc1ccc(C2=NN(C3CCN(C(=O)CCCOc4ccc5[nH]c(=O)ccc5c4)CC3)C(=O)[C@@H]3CC=CC[C@H]23)cc1OC` reads 146 to 149 °C. `CC(CCCI)C(=O)Nc1nnc(C(C)(C)C)s1` (stereo unspecified) returned a melting point of 102 °C. `CCOC(=O)c1c(O)ncnc1CC` showed a melting point of 84.5 to 86 °C. Regarding `COC(=O)C(Cl)C(C)=NNS(=O)(=O)c1ccc(C)cc1` (stereo unspecified), the melting point is 97 to 101 °C.

The compound `COc1ccc(C2CNCc3ccc(C)cc32)cc1OC` (stereo unspecified) came in with a melting point of 94 to 96 °C. Under `Fc1ccc(-c2n[nH]c(-c3ccncc3)c2-c2ccncc2)cc1` stands 304 °C; under `CC(C)(C)OC(=O)N[C@H](Cc1ccc(C(F)(F)F)o1)[C@@H](O)c1ccc(F)cc1` (racemic), 111 to 112 °C; under `Nc1ccc(-c2cnc3[nH]c(=O)n(CC4CCOCC4)c3n2)cn1`, greater than 260 °C. Take `Nc1sc(-c2cccnc2)c(CN(C2CCCCC2)C2CCCCC2)c1C(=O)c1ccc(Cl)cc1`: the melting point was in the range of 168 to 170 °C.

Regarding `NC(=O)Nc1cc(Oc2ncccc2C(F)(F)F)c(Cl)cc1F`, the melting point was greater than 220 °C. As for `CCCCCCCc1cnc(N)s1`, the melting point is 75 to 76 °C.

Consider `COc1cc(Cl)ccc1-c1nc2cc3c(cc2[nH]1)C(C)(C)CC(=O)N3`, for which the melting point lay within 300 to 303 °C.

Take `CC(C)CC(C(=O)O)c1ccc(-c2ccc(C(F)(F)F)cc2)c(OCC2CC2)c1` (stereo unspecified): the melting point lay within 142 to 143 °C. Take `Cn1ncc(NCCN(CCOc2cccc3c2OCCO3)Cc2ccccc2)c(Cl)c1=O`: the melting point lay in the range of 78 to 80 °C. The result for `ClCc1ccc(OCc2coc(/C=C/c3ccccc3)n2)cc1` reads 116 to 117 °C.

`COc1cnc(NCCCOc2cccc(CN3CCCCC3)c2)[nH]c1=O` returned a melting point of 148 to 150 °C. Under `Cc1c(NC(=O)N2C[C@H](O[Si](C)(C)C(C)(C)C)C[C@H]2CO)ccc(C#N)c1Cl` stands 169 to 171 °C; under `CCOC(=O)c1nc(SC)n2c1c(=O)n(C)c1cc(C(F)(F)F)ccc12`, 202 to 204 °C. Under `Cc1ccc(C(=Cc2nnnn2C)c2ccc(C)cc2F)c(F)c1` stands 58 to 60 °C.

The values are drawn from a melting point compilation (Tetko et al.; mined from patent text by program, amines drawn as free bases though some values may be those of a salt).
